US7572831B2, “Composition containing chalcone” (Angiolab, Inc., priority 2002, dated 2009)

Tests used:
MMP-9 = biological target: T1, MMP-9 (Homo sapiens, UniProt P14780); assay: MMP-9 spectrofluorometric enzyme activity assay; type: biochemical; conditions: 50 μM compound; read-out: MMP-9 activity inhibited
T1 construct: made in house; host or cells: Sf21 insect cells, baculovirus (pBlueBac4.5)
Procedure: MMP-1, MMP-2, MMP-9 and MMP-13 were cloned and prepared from insect cells (Sf21 insect cell) by using a Baculovirus system.
Each cDNA for corresponding MMPs was cloned to a pBlueBac4.5 transfer vector (Invitrogen, Cat no. V1995-20), and then transfected to Sf21 cells with a Bac-N-Blue Transfection Kit (Invitrogen, Cat no. K855-01). Sf21 cells were incubated with a TNM-FH (Sigma, St. Louis, Mo., U.S.A) media containing 10% fetal bovine serum at 27° C., then harvested and re-suspended at a concentration of 10^7 cell/Ml. The cell suspension was incubated with a virus containing the cloned gene for 1 hr at room temperature. Infected Sf21 cells were grown for 72 hrs and the medium was recovered, and the MMP was purified. MMP-2 (GENEBANK No. XM—048244) and MMP-9 (GENEBANK No. XM—009491) were recovered from a gelatin-sepharose affinity column (Sigma, G5384) by eluting with 5% DMSO-containing buffer. […]
As a control, 2 Ml of reaction buffer (50 mM Tricine, pH 7.5, 10 mM CaCl2, 200 mM NaCl) comprising DMSO, 10 nM of enzyme and 10 μM of substrate was prepared in a cuvette. Fluorescence intensity was measured for 5-10 min at room temperature with a spectrofluorometer.
50 μM Chalcone or its derivatives were added to a reaction buffer containing a substrate and enzyme, and fluorescence intensity was measured in the same manner.

rat aortic rings = assay: Rat aortic ring angiogenesis assay; type: cell-based, Sprague Dawley rats; conditions: day 10; for Microvessel density: control 19.5±1.8
Description: The effect of chalcone or its derivatives on angiogenesis was studied by culturing aortic explants in three-dimensional matrix gels according to the procedure of Kruger and Figg (Clinical Cancer Research 7:1867-1872, 2001). Thoracic aortas were excised from 8-week-old male Sprague Dawley rats and the fibroadipose tissue was removed. The aortas were sectioned into 1-mm-long cross-sections, rinsed with Human Endothelial-SFM (GIBCO), placed on the Matrigel-coated wells, covered with additional 50 ul Matrigel, and allowed to gel for more than 30 min at 37° C., 5% CO2. All the rings were cultured in Human Endothelial-SFM (GIBCO) supplemented with 200 ug/ml of ECGS (Endothelial Cell Growth Supplement, Sigma) as an angiogenesis inducer. Chalcone diluted with ethanol was added to the culture medium at final concentrations of 1 uM and 100 uM. 1% of ethanol only was added to the culture medium as a vehicle control. All assays were performed by using 5 aortic rings per sample. Aortic rings were photographed on day 10. The area of angiogenic sprouting was calculated using Image-Pro Plus software program (Media Cybernetics). Microvessel densities are reported in percent area.

[1] = system: experimentally induced comedones; assay: Comedolysis by EIC (experimentally induced comedones) formation; type: in vivo, New Zealand white rabbits; conditions: topical once a day, 3 weeks
Description: Effects of chalcone on comedolysis were studied using subjects of ten mature New Zealand white rabbits, which were bred to approximately 2 kg of body weight for several weeks. In order to generate EIC, 50% oleic acid in polyethylene glycol was applied to both ears of rabbits for 2 weeks. The experimental agent was applied to the ventral surface near the auditory canal once a day with the tip of a cotton stick. 18 ears of rabbits were divided into three groups, and only one of ethanol-propylene glycol (1:1) (control), 1% chalcone in ethanol-propylene glycol (1:1), or 5% chalcone in ethanol-propylene glycol (1:1) was applied on each groups for 3 weeks. The remaining 2 ears were left untreated. Biopsy specimens were taken at 3 week by punch and specimens were fixed in 10% formalin solution and embedded in paraffin for light microscopic examination. Sections of 5 μm thickness were cut and hematoxylin and eosin stain were performed. Under light microscope, fairly large comedones were formed showing hyperplasia and hyperkeratosis of epithelium in specimen treated with vehicle only. The formation of comedones decreased in specimen treated with 1% or 5% of chalcone.

[2] = system: UVB-induced wrinkle formation; assay: Skin photoaging, UVB-induced wrinkle formation; type: in vivo, albino hairless HOS:HR1 mice; conditions: topical, 15 week
Description: Effects of chalcone on skin photoaging were studied using mouse skin wrinkle induced by UV irradiation. 6-week male albino hairless HOS:HR1 mice were used for wrinkle formation induced by long-term repeated UVB irradiation. Wrinkles were formed according to the modified method described by Bissett et al (Photochem Photobiol 46: 367-378, 1987) The dose was set at 60 mJ per cm^2 for 4 weeks and increased to 120 mJ per cm^2 for 11 weeks. The frequency of irradiation was set at three times per week. In this protocol, wrinkles began to be observed macroscopically in the dorsal region from about 8 week after initiation of irradiation, and deep wrinkles were formed at 12 week. 30 hairless mice were divided into three groups, and only one of ethanol-propylene glycol (7:3) (control), 1% chalcone in ethanol-propylene glycol (7:3), or 5% chalcone in ethanol-propylene glycol (7:3) was applied on each groups for 15 weeks. 100 μl of the experimental agent was applied to the dorsal region three times weekly just after UVB exposure. At 15 week after initiation of repeated UVB irradiation, each hairless mouse was anesthetized, and the degree of wrinkle formation was evaluated according to Table 3. […] [table]

TPA-induced ear edema = TPA-induced ear edema model; type: in vivo, ICR mouse; conditions: FIG. 7

T1 sequence (P14780 107-707 limits assumed): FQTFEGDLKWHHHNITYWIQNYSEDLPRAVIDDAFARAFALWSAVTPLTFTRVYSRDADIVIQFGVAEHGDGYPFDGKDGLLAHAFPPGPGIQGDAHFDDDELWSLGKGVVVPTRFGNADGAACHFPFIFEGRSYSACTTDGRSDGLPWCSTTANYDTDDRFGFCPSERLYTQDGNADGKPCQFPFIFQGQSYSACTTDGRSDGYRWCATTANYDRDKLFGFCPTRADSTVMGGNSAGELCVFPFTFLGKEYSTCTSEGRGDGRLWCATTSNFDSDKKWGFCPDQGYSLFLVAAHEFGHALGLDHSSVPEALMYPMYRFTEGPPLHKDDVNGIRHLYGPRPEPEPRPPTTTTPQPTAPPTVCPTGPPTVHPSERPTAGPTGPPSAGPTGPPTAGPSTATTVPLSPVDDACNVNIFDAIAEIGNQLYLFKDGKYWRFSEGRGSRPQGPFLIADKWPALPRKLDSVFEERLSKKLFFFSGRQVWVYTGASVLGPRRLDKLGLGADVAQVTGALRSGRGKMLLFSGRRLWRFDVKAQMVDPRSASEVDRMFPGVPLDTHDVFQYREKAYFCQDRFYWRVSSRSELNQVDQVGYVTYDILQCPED

Q: Which inhibition at 50 µM (MMP-9) does the source give for `O=C(/C=C/c1ccccc1)c1ccccc1` [Chalcone] here?
A: ~76%

Q: And the Microvessel density (rat aortic rings; 1 uM)?
A: 18.5±1.2 percent area

Q: And the Microvessel density (rat aortic rings; 100 uM)?
A: 1.7±0.1 percent area

Q: What about the inhibition at 1 µM (rat aortic rings; Rattus norvegicus, 240 h, 1 uM, read-out: Inhibition of microvessel formation compared to control) of the same compound?
A: 5.1%

Q: What about the inhibition at 100 µM (rat aortic rings; Rattus norvegicus, 240 h, 100 uM, read-out: Inhibition of microvessel formation compared to control) of the same compound?
A: 91.3%

Q: What about the Formation of comedones ([1]; 1% chalcone in ethanol-propylene glycol (1:1)) of the same compound?
A: decreased

Q: What about the Formation of comedones ([1]; 5% chalcone in ethanol-propylene glycol (1:1)) of the same compound?
A: decreased

Q: And the “UVB-induced wrinkle formation vs vehicle-treated group” value ([2]; 1% chalcone in ethanol-propylene glycol (7:3))?
A: significantly inhibited

Q: What about the “UVB-induced wrinkle formation vs vehicle-treated group” value ([2]; 5% chalcone in ethanol-propylene glycol (7:3)) of the same compound?
A: significantly inhibited

Q: What about the “Dose dependence of anti-inflammatory activity” value (TPA-induced ear edema) of the same compound?
A: dose dependent
